Series [1] is described as follows: Effect on human sperm motility at 10^-6 mol/L measured at 60 mins post dose by Makler counting chamber method (reference value: 64.8 +/- 6.6%). The format is ADME, cell-based. The following applies: 1 h, 1 µM.
Series [2] in a line: Effect on human sperm motility at 10^-7 mol/L measured at 10 mins post dose by Makler counting chamber method (reference value: 69 +/- 4.7%). It counts as ADME, cell-based. The note with it: 0.1 µM.
Series [3] in a line: Effect on human sperm motility at 10^-5 mol/L measured at 60 mins post dose by Makler counting chamber method (reference value: 64.8 +/- 6.6%). It counts as ADME, cell-based. The note with it: 1 h, 10 µM.
A short description of series [4]: Effect on human sperm motility at 10^-7 mol/L measured immediately post dose by Makler counting chamber method (reference value: 70 +/- 4.2%). The format is ADME, cell-based. The note with it: 0.1 µM.
Series [5] in a line: Effect on human sperm motility at 10^-6 mol/L measured at 90 mins post dose by Makler counting chamber method (reference value: 62.1 +/- 5.7%). It counts as ADME, cell-based. The note with it: 1.5 h, 1 µM.
Series [6] can be described thus: Effect on human sperm motility at 10^-5 mol/L measured at 30 mins post dose by Makler counting chamber method (reference value: 66.9 +/- 4.6%). The format is ADME, cell-based. The note with it: 0.5 h, 10 µM.
Series [7] can be described thus: Effect on human sperm motility at 10^-5 mol/L measured at 90 mins post dose by Makler counting chamber method (reference value: 62.1 +/- 5.7%). The format is ADME, cell-based. The following applies: 1.5 h, 10 µM.
Series [8] deals with Mus musculus. Put plainly: Antinociceptive activity in mouse model of thermal-induced nociception assessed as increase in latency to tail withdrawal at 5 mg/kg, sc measured up to 50 mins by tail flick test. It counts as functional, organism-based. On the technique in general: Hot-plate and tail-flick tests time the reaction to a heat stimulus.
Series [9] can be described thus: Effect on human sperm motility at 10^-7 mol/L measured at 60 mins post dose by Makler counting chamber method (reference value: 64.8 +/- 6.6%). The format is ADME, cell-based. The note with it: 1 h, 0.1 µM.
The nature of series [10]: Effect on human sperm motility at 10^-5 mol/L measured immediately post dose by Makler counting chamber method (reference value: 70 +/- 4.2%). The format is ADME, cell-based. The following applies: 10 µM.
Series [11] is described as follows: Effect on human sperm motility at 10^-7 mol/L measured at 30 mins post dose by Makler counting chamber method (reference value: 66.9 +/- 4.6%). The format is ADME, cell-based. The following applies: 0.5 h, 0.1 µM.
A short description of series [12]: Effect on human sperm motility at 10^-6 mol/L measured immediately post dose by Makler counting chamber method (reference value: 70 +/- 4.2%). The format is ADME, cell-based. The following applies: 1 µM.
Series [13] is described as follows: Effect on human sperm motility at 10^-7 mol/L measured at 90 mins post dose by Makler counting chamber method (reference value: 62.1 +/- 5.7%). It counts as ADME, cell-based. The following applies: 1.5 h, 0.1 µM.
The nature of series [14]: Effect on human sperm motility at 10^-6 mol/L measured at 30 mins post dose by Makler counting chamber method (reference value: 66.9 +/- 4.6%). The note with it: 0.5 h, 1 µM. It counts as ADME, cell-based.
Series [15] is described as follows: Effect on human sperm motility at 10^-6 mol/L measured at 10 mins post dose by Makler counting chamber method (reference value: 69 +/- 4.7%). The following applies: 1 µM. It counts as ADME, cell-based.
Series [16] is described as follows: Effect on human sperm motility at 10^-5 mol/L measured at 10 mins post dose by Makler counting chamber method (reference value: 69 +/- 4.7%). The format is ADME, cell-based. The following applies: 10 µM.
Series [17] is filed under the species Rattus norvegicus. Put plainly: Selectivity ratio of Ki for displacement of [3H]DPDPE from delta-opioid receptor in Wistar rat membrane to Ki for displacement of [3H]DAMGO from mu-opioid receptor in Wistar rat brain membrane. It counts as cell membranes. (In a radioligand displacement assay an active substance lowers the binding of a labelled ligand.)
The subject of series [18] is Mus musculus. As to the kind of experiment: Antinociceptive activity in mouse model of thermal-induced nociception assessed as increase in latency to tail withdrawal at 2.5 nmol/kg, icv measured up to 60 mins by tail flick test. The format is functional.
Series [19] in a line: Half life in Kunming mouse brain homogenate at 500 uM by RP-HPLC method. It counts as ADME, tissue-based.
Series [20] relates to Mus musculus. Put plainly: Antinociceptive activity in mouse model of thermal-induced nociception assessed as increase in latency to tail withdrawal at 10 nmol/kg, icv measured 10 to 80 mins post dose by tail flick test relative to control. It counts as functional.
Series [21] addresses Mu-type opioid receptor (Rattus norvegicus, UniProt P33535). Put plainly: Displacement of [3H]DAMGO from mu-opioid receptor in Wistar rat brain membrane after 1 hr by microbeta scintillation counting method. The format is cell membranes.
Series [22] concerns Mus musculus. Put plainly: Antinociceptive activity in mouse model of thermal-induced nociception assessed as increase in latency to tail withdrawal at 5 mg/kg, sc measured up to 90 mins by tail flick test. It counts as functional, organism-based.
The target in series [23] is Delta-type opioid receptor (Rattus norvegicus, UniProt P33533). Put plainly: Displacement of [3H]DPDPE from delta-opioid receptor in Wistar rat brain membrane after 3 hrs by microbeta scintillation counting method. The format is cell membranes.
Sequence of Delta-type opioid receptor (P33533 whole entry): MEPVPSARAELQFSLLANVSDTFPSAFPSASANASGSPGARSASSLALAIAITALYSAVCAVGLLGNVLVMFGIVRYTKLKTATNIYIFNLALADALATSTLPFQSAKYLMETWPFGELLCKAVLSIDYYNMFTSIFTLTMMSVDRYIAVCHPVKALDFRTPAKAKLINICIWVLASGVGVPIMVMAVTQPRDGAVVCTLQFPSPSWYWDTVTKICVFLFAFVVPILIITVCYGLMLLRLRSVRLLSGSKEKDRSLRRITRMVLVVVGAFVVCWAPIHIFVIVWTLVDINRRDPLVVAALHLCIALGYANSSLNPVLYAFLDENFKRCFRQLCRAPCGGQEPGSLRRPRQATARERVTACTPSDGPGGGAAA
Series [24] has as its system Mus musculus. As to the kind of experiment: Antinociceptive activity in mouse model of thermal-induced nociception assessed as increase in latency to tail withdrawal at 10 mg/kg, sc measured up to 90 mins by tail flick test. It counts as functional, organism-based.
Series [25] in a line: Half life in Kunming mouse plasma at 500 uM by RP-HPLC method. The format is ADME, cell-free.
Series [26] deals with Mus musculus. As to the kind of experiment: Antinociceptive activity in mouse model of thermal-induced nociception assessed as increase in latency to tail withdrawal at 10 nmol/kg, icv measured up to 60 mins by tail flick test. It counts as functional.
For series [27], the system named is Mus musculus. Put plainly: Antinociceptive activity in mouse model of thermal-induced nociception assessed as increase in latency to tail withdrawal at 10 nmol/kg, icv measured up to 50 mins by tail flick test. The format is functional.

Results on seven compounds are retold here after ChEMBL document CHEMBL4038292 (Bioorg Med Chem Lett, 2017).

The source made the active and inactive calls. No cut-off for these calls is given here. Where only a bound is given, the exact number is not on record here.

Sequence of Mu-type opioid receptor (P33535 whole entry): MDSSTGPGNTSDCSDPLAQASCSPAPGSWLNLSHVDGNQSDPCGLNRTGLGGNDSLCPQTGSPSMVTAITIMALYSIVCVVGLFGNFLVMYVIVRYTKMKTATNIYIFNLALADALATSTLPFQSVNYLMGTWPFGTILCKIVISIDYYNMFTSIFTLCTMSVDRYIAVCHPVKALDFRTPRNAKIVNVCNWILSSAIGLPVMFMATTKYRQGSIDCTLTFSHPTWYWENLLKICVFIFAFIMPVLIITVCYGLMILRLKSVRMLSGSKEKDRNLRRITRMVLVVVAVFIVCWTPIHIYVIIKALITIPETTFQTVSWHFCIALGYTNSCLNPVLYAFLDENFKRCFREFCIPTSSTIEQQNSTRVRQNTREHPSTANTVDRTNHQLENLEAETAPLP

Take `CN1CC[C@]23c4c5ccc(O)c4O[C@H]2[C@@H](O)C=C[C@H]3[C@H]1C5` [MORPHINE]: the Activity in series [1] is given as 60.7%; in series [2], 70.8%; in series [3], 57.6%; in series [4], 69.4%; in series [5] it was 59.3%; in series [6] it was 58.8%. The Activity stood at 55.7% in series [7]; 69% in series [9]; 62.7% in series [10]; 67% in series [11]; 65.6% in series [12]; 57.7% in [13]. In addition, the figures for the Activity in [14], in series [15] and in series [16] were 63%, 62.7% and 60.2%, respectively. For the same compound, the outcome in series [8] was Active.

For `C[C@@H](NC(=O)[C@H](Cc1ccc(O)cc1)NC(=N)N)C(=O)NCC(=O)N[C@@H](Cc1ccccc1)C(N)=O`, the Activity is 58% in series [1]; 68.5% in series [2]; 59% in series [3]; 66.7% in series [4]; 57.3% in series [5]; 59.1% in series [6]. Also, the Activity in [7] is given as 56.5%; in [9], 58.6%; in series [10], 62.1%; in series [11], 62.8%; in [12], 64.5%; in series [13], 53.2%. Besides, the Activity was 59.6% in series [14], 60.6% in series [15] and 60.3% in series [16]. Besides, the Ratio Ki in [17] is 2000. Further, the result in [18], in [22] and in [24] was Active. Also, the results for the half-life at 500 µM in series [19] and in [25] were 6.07 h and 3.87 h, respectively. In addition, the MPE in [20] was 90 - 100%. The values for the Ki in [21] and in series [23] were 0.42 nM and 840 nM, respectively.

As to `NC(=O)[C@H](Cc1ccccc1)NC(=O)[C@H](Cc1c[nH]c2ccccc12)NC(=O)[C@@H]1CCCN1C(=O)[C@@H](N)Cc1ccc(O)cc1` [ENDOMORPHIN-1], the half-life (in general, how long it takes for the measured level to halve) at 500 µM was 0.392 h in series [19] and 0.101 h in series [25]. For the same compound, in series [26], the outcome was Active.

Turning to `C[C@@H](NC(=O)[C@@H](N)Cc1ccc(O)cc1)C(=O)NCC(=O)N[C@@H](Cc1ccc(Cl)cc1)C(N)=O`, the half-life at 500 µM in series [19] is 5.29 h; in series [25], 3.99 h. In addition, the result in series [8] and in series [27] was Active. Moreover, the Ki (usually a dissociation constant, usually derived from enzyme kinetics or from competition with a known ligand) in series [21] is 1.24 nM; in series [23], above 1000 nM.

Take `C[C@@H](NC(=O)[C@@H](N)Cc1ccc(O)cc1)C(=O)NCC(=O)N[C@@H](Cc1ccccc1)C(N)=O`: the Ratio Ki in series [17] was determined as 1800. The half-life at 500 µM in series [19] was 4.33 h; in series [25], 4.38 h. Also, the result in series [8] and in [27] was Active. Also, the Ki in [21] came out at 2.11 nM; in [23], 3800 nM.

Take `N=C(N)N[C@@H](Cc1ccc(O)cc1)C(=O)N1CCC[C@@H]1C(=O)NCC(=O)N[C@@H](Cc1ccccc1)C(N)=O`: the Ratio Ki in series [17] was 18.4. Further, the half-life at 500 µM is 4.94 h in series [19] and 3.68 h in series [25]. Moreover, the Ki in series [21] was determined as 247 nM; in [23], 4550 nM.

On to `C[C@@H](NC(=O)[C@H](Cc1ccc(O)cc1)NC(=N)N)C(=O)NCC(=O)N[C@@H](Cc1ccc(Cl)cc1)C(N)=O`, for which the Activity in [1] is 72%; in series [2], 58.8%; in series [3] it was 55.3%; in [4], 62.7%; in [5] it was 78.3%; in series [6], 56.1%. Further, the Activity in series [7] is reported as 53.5%; in series [9] it was 55.2%; in [10] it was 60.1%; in [11], 59%; in series [12], 69.5%; in series [13], 53.2%. The Activity in [14] was determined as 64.6%; in [15], 64.6%; in series [16] it was 59.3%. In addition, in series [17], the Ratio Ki worked out at 288. For the same compound, the result in [18], in [22] and in series [24] was Active. Moreover, the half-life at 500 µM came out at 6.52 h in series [19] and 3.91 h in [25]. Also, the MPE in series [20] is reported as 90 - 100%. Further, the Ki in series [21] is 0.35 nM; in series [23], 101 nM.
